Calls of active or inactive are those of the source.
How the values were obtained:
[1] = system: INS1; assay: beta cell apoptosis inhibitors, cytokine rescue, dose response, luminescence, retest (AID 449756); assay type: functional, cell-based; conditions: Rattus norvegicus;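 also: cell death triggered by IL-1 beta plus TNF-alpha plus IFN-gamma mixture; protective hits raise ATP signal compared with cytokine alone wells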
[2] = molecular target: COUP transcription factor 2 (Homo sapiens, UniProt P24468); assay: Luminescence-based cell-based high throughput dose response assay to identify inhibitors of COUP-TFII (NR2F2).; assay type: functional;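 also: HEK293 cells transiently cotransfected with COUP-TFII expression vector and reporter; luciferase reporter luminescence driven by COUP-TFII from the pX2-168 reporter plasmid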
Chain of COUP transcription factor 2 (P24468 whole entry): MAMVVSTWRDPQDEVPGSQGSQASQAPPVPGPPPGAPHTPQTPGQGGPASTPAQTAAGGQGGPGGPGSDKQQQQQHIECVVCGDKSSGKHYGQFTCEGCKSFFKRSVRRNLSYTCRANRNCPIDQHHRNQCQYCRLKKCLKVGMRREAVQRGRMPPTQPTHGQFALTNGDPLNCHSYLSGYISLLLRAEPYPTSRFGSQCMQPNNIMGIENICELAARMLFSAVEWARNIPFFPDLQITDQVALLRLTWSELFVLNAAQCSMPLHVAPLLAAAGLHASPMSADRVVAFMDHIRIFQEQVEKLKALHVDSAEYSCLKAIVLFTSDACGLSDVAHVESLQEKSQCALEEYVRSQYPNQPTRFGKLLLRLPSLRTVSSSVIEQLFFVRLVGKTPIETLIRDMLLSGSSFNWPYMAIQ

[3] = molecular target: Beta-lactamase (Salmonella choleraesuis (strain SC-B67), UniProt Q5J463); assay: Epi-absorbance-based counterscreen for selective VIM-2 inhibitors: dose response biochemical high throughput screening assay to identify inhibitors of TEM-1 serine-beta-lactamase.
Chain of Beta-lactamase (Salmonella choleraesuis (strain SC-B67), UniProt Q5J463) (Q5J463 whole entry): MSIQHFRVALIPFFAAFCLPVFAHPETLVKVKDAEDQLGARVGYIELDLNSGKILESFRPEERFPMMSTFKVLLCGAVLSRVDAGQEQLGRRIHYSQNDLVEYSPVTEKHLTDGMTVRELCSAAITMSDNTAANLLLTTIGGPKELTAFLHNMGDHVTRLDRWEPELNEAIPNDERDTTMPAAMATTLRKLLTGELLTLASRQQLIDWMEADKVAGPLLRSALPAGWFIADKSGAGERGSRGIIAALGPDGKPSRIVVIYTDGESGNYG

[4] = molecular target: T1, Beta-lactamase (Pseudomonas aeruginosa, UniProt Q79MP6); assay: IMP-1 metallo-beta-lactamase inhibitors, dose response, selectivity assay for VIM-2 inhibitor project, biochemical, epi-absorbance (AID 1920)
T1 sequence (Q79MP6 whole entry): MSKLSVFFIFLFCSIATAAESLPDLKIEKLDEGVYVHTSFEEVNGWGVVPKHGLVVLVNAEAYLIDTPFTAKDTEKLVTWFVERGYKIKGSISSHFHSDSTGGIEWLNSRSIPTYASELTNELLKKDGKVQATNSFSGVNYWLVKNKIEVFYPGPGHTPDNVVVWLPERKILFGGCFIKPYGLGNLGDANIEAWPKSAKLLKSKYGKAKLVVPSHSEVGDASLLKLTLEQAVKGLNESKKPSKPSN

[5] = molecular target: T1, Beta-lactamase; assay: […] counterscreen for selective VIM-2 inhibitors: dose response biochemical high throughput screening assay to identify inhibitors of IMP-1 metallo-beta-lactamase.
[6] = A549 cell cytotoxicity, dose response, cytotoxicity control, plate reader, cherry-pick, antagonist series (AID 743412); assay type: functional, cell-based
[7] = LGR2 antagonists, dose response, cell-based, HEK293, CRE-luciferase reporter, cherry pick (AID 743342); assay type: functional
[8] = HEK293 cell cytotoxicity, dose response, cytotoxicity control, plate reader, cherry-picked samples (AID 743446); assay type: functional, cell-based
[9] = HEK293T cytotoxicity, dose response, cytotoxicity control for miR-122 modulator project, cell-based, inhibitor set, cherry-pick, set 2 (AID 720697); assay type: functional
[10] = molecular target: Luciferin 4-monooxygenase (Photinus pyralis, UniProt P08659); assay: Counter Screen for Luciferase-based Assay Positives. [Related pubchem assays: 620, 618, 411 ]
[11] = system: HT-1080; assay: cytotoxicity in HT1080 fibrosarcoma cells, cell-based, fluorescence readout (AID 620); assay type: functional; conditions: Homo sapiens
[12] = molecular target: Fructose-bisphosphate aldolase (Mycobacterium tuberculosis, UniProt P9WQA3); assay: Fluorescence-based biochemical high throughput dose response assay for inhibitors of the fructose-bisphosphate aldolase (FBA) of M. tuberculosis.; assay type: functional
Chain of Fructose-bisphosphate aldolase (P9WQA3 whole entry): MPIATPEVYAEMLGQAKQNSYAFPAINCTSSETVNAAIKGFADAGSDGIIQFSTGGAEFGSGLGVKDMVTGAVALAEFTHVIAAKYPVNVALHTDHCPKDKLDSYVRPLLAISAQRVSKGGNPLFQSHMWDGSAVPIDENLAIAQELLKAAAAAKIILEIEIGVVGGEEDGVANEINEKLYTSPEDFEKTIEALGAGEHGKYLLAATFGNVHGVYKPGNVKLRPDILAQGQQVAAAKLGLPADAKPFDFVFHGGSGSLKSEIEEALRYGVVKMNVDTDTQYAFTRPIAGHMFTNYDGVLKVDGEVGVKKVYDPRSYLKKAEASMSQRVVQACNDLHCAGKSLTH

[13] = HEp-2 cell cytotoxicity, dose response, cytotoxicity control for RSV inhibitor project, HTS (AID 2410); assay type: functional; conditions: human respiratory syncytial virus
[14] = molecular target: Paired box protein Pax-8 (Homo sapiens, UniProt Q06710); assay: inhibitors of PAX8-driven TPO luciferase reporter, dose response, RMG-I cells, cherry-pick (AID 687027); assay type: functional, cell-based;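 also: luciferase reporter driven by Pax8 target thyroperoxidase promoter measured by SteadyGlo luminescence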
Chain of Paired box protein Pax-8 (Q06710 whole entry): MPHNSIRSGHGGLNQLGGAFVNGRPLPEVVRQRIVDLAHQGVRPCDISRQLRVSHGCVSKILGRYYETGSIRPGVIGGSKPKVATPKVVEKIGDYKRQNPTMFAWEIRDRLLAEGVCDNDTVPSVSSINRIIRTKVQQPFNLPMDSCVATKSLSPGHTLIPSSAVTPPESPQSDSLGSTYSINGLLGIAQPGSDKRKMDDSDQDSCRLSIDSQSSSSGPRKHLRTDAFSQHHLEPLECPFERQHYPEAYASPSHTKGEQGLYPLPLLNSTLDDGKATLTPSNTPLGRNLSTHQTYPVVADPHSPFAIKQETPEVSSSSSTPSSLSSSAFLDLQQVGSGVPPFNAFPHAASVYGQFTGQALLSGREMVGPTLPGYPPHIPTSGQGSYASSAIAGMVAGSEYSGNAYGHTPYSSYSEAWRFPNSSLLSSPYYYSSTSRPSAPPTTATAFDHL

[15] = A2780 ovarian cancer cell cytotoxicity, dose response, cytotoxicity control, plate reader, dry powder samples (AID 743046); assay type: functional, cell-based
[16] = NIH:OVCAR-3 ovarian cancer cell cytotoxicity, dose response, PAX8 inhibitor project, plate reader, dry powder samples (AID 743044); assay type: functional, cell-based
[17] = cytotoxicity in OVCAR8 ovarian cancer cells, dose response, PAX8 project, cell-based, plate reader, dry powder samples (AID 743197); assay type: functional; conditions: OVCAR-8
[18] = P. falciparum Dd2 growth inhibitors, dose response, SYBR Green, cherry-picked samples (AID 1159567); assay type: functional, cell-based
[19] = molecular target: T2, Heat shock factor protein 1 (Mus musculus, UniProt P38532); assay: HSF1 potentiators in luciferase reporter cells, confirmation, cell-based, NIH3T3, luminescence, dose retest (AID 435004); assay type: functional;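 also: stress induced by proteasome inhibitor MG132 added 30 min after compound; luciferase reporter driven by HSF1 response element in NIH3T3 cells; actives raise luminescence as potentiators of the MG132 stress response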
T2 sequence (P38532 whole entry): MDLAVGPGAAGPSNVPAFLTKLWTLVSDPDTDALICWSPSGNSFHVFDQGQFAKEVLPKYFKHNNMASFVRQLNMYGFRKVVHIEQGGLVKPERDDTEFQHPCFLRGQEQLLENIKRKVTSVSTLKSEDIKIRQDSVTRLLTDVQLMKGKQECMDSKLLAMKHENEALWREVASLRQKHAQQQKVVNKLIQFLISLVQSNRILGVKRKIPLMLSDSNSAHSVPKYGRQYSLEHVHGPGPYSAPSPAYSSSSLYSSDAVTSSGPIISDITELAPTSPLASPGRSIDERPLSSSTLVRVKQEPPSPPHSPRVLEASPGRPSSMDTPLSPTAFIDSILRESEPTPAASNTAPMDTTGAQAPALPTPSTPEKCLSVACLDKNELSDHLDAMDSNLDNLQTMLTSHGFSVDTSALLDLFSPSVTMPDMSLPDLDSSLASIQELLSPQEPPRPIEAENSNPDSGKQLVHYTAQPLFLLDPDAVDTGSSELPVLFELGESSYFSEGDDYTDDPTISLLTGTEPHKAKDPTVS

[20] = ADAM10 inhibitors, peptide cleavage, dose response, biochemical, QFRET (AID 743254);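 also: ADAM10 enzyme with the DM2 quenched FRET peptide as substrate; EDANS fluorescence gain as the protease cuts the substrate; inhibitor potency against ADAM10 proteolytic activity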
[21] = molecular target: T3, Disintegrin and metalloproteinase domain-containing protein 17 (Homo sapiens, UniProt P78536); assay: ADAM17 protease inhibitors, dose response, counter-screen for ADAM10 exosite inhibitor project, biochemical, quenched FRET substrate (AID 743253)
T3 sequence (P78536 whole entry, the tested form may be a part): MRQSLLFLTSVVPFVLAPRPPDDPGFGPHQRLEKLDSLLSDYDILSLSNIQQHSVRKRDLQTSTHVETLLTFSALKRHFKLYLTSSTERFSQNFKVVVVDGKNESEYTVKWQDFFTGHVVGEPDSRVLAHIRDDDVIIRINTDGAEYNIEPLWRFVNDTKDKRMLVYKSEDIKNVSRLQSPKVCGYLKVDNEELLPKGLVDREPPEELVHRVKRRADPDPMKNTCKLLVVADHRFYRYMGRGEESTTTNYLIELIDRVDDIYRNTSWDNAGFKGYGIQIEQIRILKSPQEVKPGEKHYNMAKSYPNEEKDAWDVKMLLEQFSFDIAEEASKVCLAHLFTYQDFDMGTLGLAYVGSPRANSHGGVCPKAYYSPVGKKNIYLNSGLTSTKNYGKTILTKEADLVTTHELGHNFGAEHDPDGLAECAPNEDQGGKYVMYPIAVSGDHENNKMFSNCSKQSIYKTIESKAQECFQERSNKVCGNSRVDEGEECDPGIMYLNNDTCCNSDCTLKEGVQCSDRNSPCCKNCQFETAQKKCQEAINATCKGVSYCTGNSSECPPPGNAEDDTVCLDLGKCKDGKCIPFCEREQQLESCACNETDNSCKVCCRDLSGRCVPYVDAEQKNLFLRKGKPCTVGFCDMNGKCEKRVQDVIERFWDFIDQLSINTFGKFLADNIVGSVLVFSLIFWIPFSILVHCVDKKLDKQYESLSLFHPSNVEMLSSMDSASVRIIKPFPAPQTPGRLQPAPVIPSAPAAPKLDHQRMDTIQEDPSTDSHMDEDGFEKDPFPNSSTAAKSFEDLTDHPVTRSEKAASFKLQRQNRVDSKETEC

[22] = molecular target: Caspase-6 (Homo sapiens, UniProt P55212); assay: human caspase-6 inhibitors, dose response, biochemical, VEID-R110 fluorescence, cherry-pick (AID 720632)
Chain of Caspase-6 (P55212 24-179 limits assumed): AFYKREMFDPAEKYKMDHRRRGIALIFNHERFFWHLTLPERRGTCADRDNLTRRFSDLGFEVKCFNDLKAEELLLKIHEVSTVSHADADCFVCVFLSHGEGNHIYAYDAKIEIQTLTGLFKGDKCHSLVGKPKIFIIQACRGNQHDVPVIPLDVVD
Chain of Caspase-6 (P55212 194-293 limits assumed): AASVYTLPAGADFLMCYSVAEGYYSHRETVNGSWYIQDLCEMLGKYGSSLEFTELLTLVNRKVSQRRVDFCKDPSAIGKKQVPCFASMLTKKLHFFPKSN

[23] = miR-122 activators in hepatoma reporter cells, dose response, cell-based, Huh7 psiCHECK-miR122, Renilla luciferase, cherry-picked (AID 651956); assay type: functional;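 also: huh7 hepatoma cells stably carrying a psiCHECK-2 miR-122 sensor plasmid; renilla luciferase signal reporting endogenous miR-122 activity after 48 h compound exposure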
[24] = HEK293T cytotoxicity, dose response, cytotoxicity control for miR-122 modulator project, cell-based, activator set, cherry-pick (AID 720690); assay type: functional;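 also: HEK293T human cells scored for general mammalian cytotoxicity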
[25] = T. cruzi growth inhibition in host cells, dose response, cell-based, plate reader, dry powder, set 2 (AID 652275); assay type: functional
[26] = Late stage assay provider results from the probe development effort to identify inhibitors of the Plasmodium falciparum M18 Aspartyl Aminopeptidase (M18AAP): radiolabel-based cell-based dose response assay to identify compounds that inhibit P. falciparum growth in RBCs, Set 2..; assay type: functional
[27] = molecular target: SWI/SNF-related matrix-associated actin-dependent regulator of chromatin subfamily A member 2 (Homo sapiens, UniProt P51531); assay: Luminescence-based cell-based high throughput dose response assay to identify activators of the function of SWI/SNF related, matrix associated, actin dependent regulator of chromatin, subfamily a, member 2 (SMARCA2, BRM).; assay type: functional
Chain of SWI/SNF-related matrix-associated actin-dependent regulator of chromatin subfamily A member 2 (P51531 whole entry): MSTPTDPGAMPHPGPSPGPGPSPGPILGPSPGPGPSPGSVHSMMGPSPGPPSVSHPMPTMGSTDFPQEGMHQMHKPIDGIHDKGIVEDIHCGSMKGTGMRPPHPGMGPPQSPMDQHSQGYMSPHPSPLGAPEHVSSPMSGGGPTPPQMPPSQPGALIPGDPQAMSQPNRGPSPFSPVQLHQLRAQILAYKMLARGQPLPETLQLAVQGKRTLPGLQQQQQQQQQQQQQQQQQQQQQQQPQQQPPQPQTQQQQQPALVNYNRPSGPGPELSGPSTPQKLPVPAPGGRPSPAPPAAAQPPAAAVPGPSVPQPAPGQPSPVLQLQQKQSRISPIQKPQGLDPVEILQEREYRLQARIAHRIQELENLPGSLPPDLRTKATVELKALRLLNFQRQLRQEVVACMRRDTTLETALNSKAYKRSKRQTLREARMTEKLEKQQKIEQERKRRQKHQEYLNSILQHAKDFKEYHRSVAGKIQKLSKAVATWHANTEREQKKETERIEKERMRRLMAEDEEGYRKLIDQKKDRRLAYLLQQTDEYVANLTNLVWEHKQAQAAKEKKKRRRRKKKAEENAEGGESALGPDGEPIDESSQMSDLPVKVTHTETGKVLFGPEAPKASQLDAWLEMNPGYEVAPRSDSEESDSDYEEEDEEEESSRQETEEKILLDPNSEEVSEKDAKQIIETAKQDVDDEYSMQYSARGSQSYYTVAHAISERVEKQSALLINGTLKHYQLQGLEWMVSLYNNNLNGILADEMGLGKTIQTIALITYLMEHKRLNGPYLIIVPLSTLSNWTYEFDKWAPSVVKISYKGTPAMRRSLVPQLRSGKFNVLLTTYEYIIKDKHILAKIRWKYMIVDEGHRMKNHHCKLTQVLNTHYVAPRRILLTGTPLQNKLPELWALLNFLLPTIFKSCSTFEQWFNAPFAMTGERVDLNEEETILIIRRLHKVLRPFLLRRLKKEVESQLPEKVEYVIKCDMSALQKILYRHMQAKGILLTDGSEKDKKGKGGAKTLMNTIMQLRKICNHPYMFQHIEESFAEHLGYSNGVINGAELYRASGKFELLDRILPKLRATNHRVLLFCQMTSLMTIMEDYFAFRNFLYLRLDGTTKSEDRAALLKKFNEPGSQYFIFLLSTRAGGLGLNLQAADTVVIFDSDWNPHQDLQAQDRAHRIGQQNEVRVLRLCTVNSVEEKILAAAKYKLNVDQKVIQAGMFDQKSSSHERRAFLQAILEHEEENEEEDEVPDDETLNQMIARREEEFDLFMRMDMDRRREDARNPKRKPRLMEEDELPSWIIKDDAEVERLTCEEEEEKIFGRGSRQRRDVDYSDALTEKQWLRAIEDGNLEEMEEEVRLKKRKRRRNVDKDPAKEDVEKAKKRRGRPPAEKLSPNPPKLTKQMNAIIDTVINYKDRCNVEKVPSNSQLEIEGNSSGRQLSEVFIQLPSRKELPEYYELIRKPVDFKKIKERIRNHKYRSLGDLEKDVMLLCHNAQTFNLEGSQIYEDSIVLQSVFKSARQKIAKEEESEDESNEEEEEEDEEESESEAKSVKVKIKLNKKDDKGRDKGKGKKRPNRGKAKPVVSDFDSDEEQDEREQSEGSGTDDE

[28] = Counterscreen for activators of the function of SWI/SNF related, matrix associated, actin dependent regulator of chromatin, subfamily a, member 2 (SMARCA2, BRM): Luminescence-based cell-based high throughput dose response assay to identify non-selective compounds using the VP16 reporter assay.; assay type: functional
[29] = inhibitors of intracellular T. cruzi replication, confirmation, NIH3T3 host cells, beta-gal luminescence (AID 2044); assay type: functional, cell-based;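 also: intracellular parasites grown in NIH/3T3 mouse fibroblasts as host cells; luminescent beta-galactosidase reporter signal from transgenic T. cruzi replicating inside host cells; inhibitors lower the luminescence signal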
[30] = cytotoxicity toward NIH3T3 fibroblasts, dose response, counter-screen, cell-based, ATP luminescence, mouse fibroblasts (AID 2010); assay type: functional;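 also: cells exposed to compound for about 90 hours before reading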
[31] = molecular target: Voltage-dependent T-type calcium channel subunit alpha-1H (Homo sapiens, UniProt O95180); assay type: functional;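 also: channel activity triggered by adding a high calcium stimulation buffer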
[32] = molecular target: T3, Disintegrin and metalloproteinase domain-containing protein 17; assay: exosite inhibitors of ADAM17, dose response, biochemical (AID 743260)
[33] = ADAM10 protease inhibitors, dose response, selectivity assay for ADAM17 exosite inhibitor project, biochemical, FRET peptide substrate, recombinant human ADAM10 (AID 743259);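 also: ADAM10 enzyme cleaving a FRET peptide substrate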
[34] = molecular target: Tyrosyl-DNA phosphodiesterase 2 (Homo sapiens, UniProt O95551); assay: human TDP2 enzyme inhibitors, dose response, biochemical, epi absorbance, IC50 (AID 743297)
Chain of Tyrosyl-DNA phosphodiesterase 2 (O95551 whole entry): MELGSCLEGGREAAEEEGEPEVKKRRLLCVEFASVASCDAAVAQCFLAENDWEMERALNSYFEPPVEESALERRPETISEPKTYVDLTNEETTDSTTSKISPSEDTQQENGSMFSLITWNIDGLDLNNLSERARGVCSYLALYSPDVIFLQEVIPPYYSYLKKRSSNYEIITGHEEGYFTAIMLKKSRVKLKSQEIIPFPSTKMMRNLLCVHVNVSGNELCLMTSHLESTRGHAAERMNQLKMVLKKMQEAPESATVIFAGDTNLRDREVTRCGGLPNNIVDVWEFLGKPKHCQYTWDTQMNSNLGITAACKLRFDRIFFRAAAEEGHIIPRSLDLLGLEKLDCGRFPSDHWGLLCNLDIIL

With `O=C(NCC(c1ccco1)N1CCCC1)c1ccc(Cl)c(S(=O)(=O)N2CCc3ccccc32)c1` (centres undefined) the AC50 [1] was 3.56 µM (active) and the IC50 [2] was 7.01 µM (active).

With `Cc1cc(=O)oc2c3c(cc(OCC(=O)N4CCC[C@H]4C(=O)O)c12)OC(C)(C)CC3` the IC50 [3] was > 59.6 µM (inactive), the IC50 [4] was > 59.6 µM (inactive) and the IC50 [5] was > 59.6 µM (inactive).

In the case of `C[C@H](CO)N1C[C@H](C)[C@H](CN(C)C(=O)Nc2ccc(C(F)(F)F)cc2)OCCCC[C@H](C)Oc2ccc(NC(=O)CCC(F)(F)F)cc2C1=O`, the AC50 [6] is reported as 35.6 µM (active), the AC50 [7] is reported as 1.29 µM (active) and the AC50 [8] is reported as 32.9 µM (active).

With `CN1C(=O)c2cc(NC(=O)C3CC3)ccc2OC[C@@H]2O[C@H](CC(=O)NC3CCC3)CC[C@H]21` the AC50 [9] was 9.32 µM (active).

For `Cc1ccc2nc(-c3cccc(N)c3)oc2c1`, the EC50 [10] was 9.87 µM (active), the EC50 [11] was > 50 µM (not active) and the IC50 [12] was 0.588 µM (active).

In the case of `COc1ccc(Cn2nnnc2C(CC(C)C)N2CCN(c3ccccc3)CC2)cc1` (centres undefined), the CC50 [13] is reported as > 50 µM (active) and the IC50 [12] is reported as > 9.99 µM (inactive).

With `CC(C)NC(=O)N1Cc2cc(C(=O)NCC(F)(F)F)nc(-c3cccc(-c4cc5ccccc5o4)c3)c2[C@H]1CCO` the AC50 [14] was 7.2 µM (active), the AC50 [15] was 16.8 µM (active) and the AC50 [16] was 38.2 µM (active). For the same compound, the AC50 [17] was 58.2 µM (active) and the AC50 [18] was 5.15 µM (active).

With `COc1ccc(NC(=O)N(C)C[C@@H]2OCCCC[C@H](C)Oc3ccc(NC(=O)NC4CCCCC4)cc3C(=O)N([C@H](C)CO)C[C@@H]2C)cc1` the AC50 [7] was 18.2 µM (active).

For `N#Cc1c(-c2ccccc2)c(-c2ccccc2)n(Cc2ccco2)c1NC(=O)c1cccs1`, the EC50 [19] was > 260 µM (inactive), the IC50 [20] was > 69.5 µM (inactive) and the IC50 [21] was > 69.5 µM (inactive).

For `Cc1ccc(Sc2ccc(S(=O)(=O)Nc3ccc(CC(=O)O)cc3)cc2)cc1C`, the AC50 [22] was 49.3 µM (active).

With `CC1CCCCC1n1c(S)nnc1-c1cccnc1` (centres undefined) the IC50 [3] was > 59.6 µM (inactive), the IC50 [4] was > 59.6 µM (inactive) and the IC50 [5] was > 59.6 µM (inactive).

In the case of `C[C@@H]1CCCCO[C@@H](CN(C)CC2CCCCC2)[C@H](C)CN([C@H](C)CO)C(=O)c2cc(NC(=O)Nc3cccc4ccccc34)ccc2O1`, the AC50 [23] is reported as 7.47 µM (active), the AC50 [9] is reported as 13.8 µM (active) and the AC50 [24] is reported as 14.8 µM (active).

With `CN(C)CC#Cc1cccc(-c2nc(C(=O)NCc3ccc(Oc4ccccc4)cc3)cc3c2[C@@H](CCO)N([S+]([O-])C(C)(C)C)C3)c1` (some centres undefined) the AC50 [25] was 0.697 µM (active).

In the case of `COc1cccc(CCNc2c3ccccc3nc3ccccc23)c1`, the IC50 [26] is reported as 0.6 µM (active).

For `Oc1ccc(CCNC2CCN(Cc3ccccc3)CC2)cc1O`, the IC50 [26] was 6.5 µM (active).

For `CC(C)(C)NC(=O)C(CCc1ccccc1)n1c(=O)c(-c2ccccc2)nc2ccccc21` (centres undefined), the EC50 [27] was > 91.1 µM (inactive) and the EC50 [28] was > 91.1 µM (inactive).

With `CCOC(=O)c1cc2c(c(-c3cccc(C#CCN(C)C)c3)n1)[C@@H](CCO)N([S+]([O-])C(C)(C)C)C2` (some centres undefined) the AC50 [25] was 16.2 µM (active).

In the case of `Cc1cccc2cc(CN(Cc3ccco3)C(=O)Nc3cccc(C#N)c3)c(Cl)nc12`, the EC50 [29] is reported as 1.94 µM (active), the EC50 [30] is reported as 26.5 µM (active) and the EC50 [31] is reported as 6.15 µM (active). The IC50 [20] was > 69.5 µM (inactive) and the IC50 [21] was > 69.5 µM (inactive).

In the case of `CC(=O)Nc1cc(-c2ccc(N3CCN(C)CC3)cc2)cn2c(-c3ccc(F)cc3)cnc12`, the EC50 [27] is reported as > 91.2 µM (inactive) and the EC50 [28] is reported as > 91.2 µM (inactive).

In the case of `C[C@H](CO)N1C[C@H](C)[C@@H](CN(C)S(=O)(=O)c2ccc(Cl)cc2)OCCCC[C@H](C)Oc2ccc(NS(=O)(=O)c3ccc(F)cc3)cc2C1=O`, the AC50 [14] is reported as 4.45 µM (active), the AC50 [15] is reported as 29.1 µM (active) and the AC50 [16] is reported as 36 µM (active).

For `COc1ccc(Cn2cc(CN3CCS(=O)(=O)N(Cc4ccc(-c5cccc(Cl)c5)cc4)C(C)C3=O)nn2)cc1` (centres undefined), the IC50 [32] was > 69.5 µM (inactive) and the IC50 [33] was > 69.5 µM (inactive).

In the case of `COc1ccc(-c2[nH]nc(O)c2NC(=O)c2ccc(C)cc2)cc1`, the IC50 [34] is reported as > 128 µM (inactive).
